US9669112B2, “Animal model of neuronal injury” (The J. David Gladstone Institutes, priority 2012, dated 2017)
“Also recorded” adds a separate entry of the source.

Key:
spinal cord = assay: Demyelination and microglia activation after stereotactic injection into the spinal cord; format: in vivo, wild-type mice; settings: single injection at physiological concentrations; after 7 days
Description: Either ACSF or fibrinogen was stereotactically injected at physiological concentrations into the spinal cord of wild-type mice (each Group n=3-4). […] The % area for IBA-1 staining indicates a percentage of the mean area of CD3 or IBA-1 immunoreactivity in the predefined area on spinal cord sections.

wild-type mice [1] = assay: Contextual fear conditioning test after stereotactic injection in the dentate gyrus; format: in vivo; settings: single injection 5 μg in dentate gyrus; day 7 post-injection; vs ACSF
Description: To assess the effect of an increase in the local concentration of fibrinogen in a specific region of interest in the brain, mice received a single stereotactic injection of either 5 μg fibrinogen (1 μl of 5 mg/ml fibrinogen) or 1 μl control (ACSF) in the dentate gyrus. The effects on memory retrieval were assessed in the contextual fear conditioning test (Riley C et al., (2012) Expert review of neurotherapeutics 12(3):323-333.). Mice were placed in a novel environment and given a brief foot shock (training day; day 6 post injection). Memory was assessed by placing the mice in the same environment again one day after the training day (testing day, day 7 post-injection) and freezing (anxiety) behavior was recorded. Percentage of freezing is a direct measure of memory retrieval.

dendritic spines = assay: Golgi staining of dendritic spines after stereotactic injection into the cortex; format: in vivo; settings: 3 days later, compared to ACSF controls
Description: Fibrinogen injection in the cortex reduces dendritic spine density. Dendritic spines are the major site of excitatory synaptic inputs in the brain (Nimchinsky E A, et al., Annu Rev Physiol. 64:313-353). Novel spine formation and pre-existing spine elimination reflect the structural consequences of dynamic changes in neuronal activity at the cellular level (Grutzendler J & Gan W B (2006) NeuroRx 3(4):489-496; Trachtenberg J T et al., (2002) Nature 420(6917):788-794; Grutzendler J et al. (2002) Nature 420(6917):812-816.). Thus, dynamic changes in spine numbers and morphology are considered the cellular mechanisms underlying memory and learning (Holtmaat A et al. (2006) Nature 441 (7096):979-983). To assess the effect of a local concentration of fibrinogen on spine morphology, we injected fibrinogen by stereotactic injection into the cortex, and the brains were examined 3 days later by Golgi staining. Fibrinogen reduced the density of dendritic spines by 33%, compared to ACSF controls (FIG. 4).

corpus callosum = assay: Demyelination and microglial activation after stereotactic injection into the corpus callosum; format: in vivo, mice
Description: Fibrinogen was stereotactically injected at physiological concentrations into the corpus callosum.
The experiment described in Example 4 was repeated using different mouse strains to investigate the possibility that the neuronal damage induced by fibrinogen was limited to mice with particular genetic backgrounds. […] This is particularly significant as in the traditional model for multiple sclerosis, experimental allergic encephalomyelitis (EAE), different strains of mice show varying degrees of susceptibility to EAE. EAE is a T cell-mediated autoimmune disease that can be induced in experimental animals by immunization with myelin antigens. The susceptibility to myelin antigens ranges from highly susceptible SJL/J mice to resistant B10.S mice.

[2] = system: neurons in the dentate gyrus; assay: NeuN and IBA-1 antibody staining of hippocampus after injection in the dentate gyrus; format: in vivo, mice; settings: 5 μg in dentate gyrus, day 7 post injection
microglia [3] = assay: Acute microglial responses in vivo after injection into the cortex with a glass microelectrode; design: species or system Cx3cr1GFPI+ mice
Description: To directly address whether fibrinogen alone was sufficient to trigger acute microglial responses in the CNS, fibrinogen was injected into the cortex of Cx3cr1GFPI+ mice using a glass microelectrode. Control electrodes were also used containing ACSF or albumin (5 mg/ml). Injection of […] of a 3-6 mg/ml fibrinogen solution, which approximates the physiological concentration of fibrinogen in plasma, caused rapid extension of microglial processes toward the tip of the electrode within […] of the injection. The size of the fibrin deposit remains unaltered, and the microglial response to fibrin persists for at least 6 hours.
The levels of microglia were quantified in vivo usingantibodies against IBA-1 (Ahmed Z, supra).

microglia [4] = assay: Microglial activation 3 days after stereotactic injections of fibrinogen or plasma; format: in vivo, mice; settings: 3 days after stereotactic injection; fibrinogen 6-10 mg/ml
Description: FIG. 8 is a bar graph illustrating the quantification of microglial immunoreactivity from mouse brain sections 3 days after stereotactic injections of fibrinogen, ACSF or albumin protein control, or plasma isolated from wt, Fib-l-, Fib_390-396A mice (n=6 mice per condition). The bar graph represents the mean (*P<0.05, **P<0.01, one-way ANOVA).
Higher concentrations of fibrinogen were introduced (6-10 mg/ml), as well as ACSF, albumin, or plasma isolated from wt, Fib-l-, Fib_390-396A mice (n=6 mice per condition).

wild-type mice [5] = assay: Morris water maze after chronic intracerebroventricular infusion of fibrinogen; format: in vivo; settings: ICV infusion 5 mg/ml, 14-day Alzet pump; tested 24 hours after last learning trial; vs ACSF
Description: Fibrinogen was delivered to the central nervous system (CNS) of wild-type mice by ICY. Briefly, fibrinogen (5 mg/ml) or artificial cerebrospinal fluid (ACSF), a control, was infused into the CNS of the mice using 14-day Alzet pumps through a cannula implanted in the right lateral ventricle. The concentration of the fibrinogen solution was selected based on its physiological range in the plasma. Five days after pump implantation, the mice were trained in the Morris water maze and tested after removal of the target platform 24 hours after the last learning trial. […] To control for visual discriminative ability, the same mice located a clearly visible black platform 2 h after the last trial.

In the case of fibrinogen, the “demyelination in the spinal cord” value (spinal cord) is reported as “spontaneously induced demyelination”, the “microglia activation in the spinal cord (IBA-1 staining)” value (spinal cord) is reported as “microglia activation” and the “percentage of freezing (memory retrieval)” value (wild-type mice [1]) is reported as “significant decrease; also recorded: impaired memory retrieval”. For the same substance, the “reduction of density of dendritic spines” value (dendritic spines) was 33%, the “demyelination in the corpus callosum” value (corpus callosum; C57BL/6 mice (B6)) was “significant demyelination” and the “microglial activation in the corpus callosum” value (corpus callosum; C57BL/6 mice (B6)) was “microglial activation”. The “demyelination in the corpus callosum” value (corpus callosum; SJL/J mice (SJL)) was “significant demyelination”, the “microglial activation in the corpus callosum” value (corpus callosum; SJL/J mice (SJL)) was “microglial activation” and the “time to induction of microglial activation” value (corpus callosum; corpus callosum injection) was no more than 1 days. For the same substance, the “demyelination in the corpus callosum” value (corpus callosum; single injection at physiological concentrations, after 7 days) was “induced demyelination”, the “microglial activation (IBA-1 antibody staining)” value ([2]; hippocampal tissue) was “increased microglial activation; also recorded: increase in IBA-1 staining” and the “NeuN immunoreactivity (neuronal loss)” value ([2]; hippocampus) was “dramatic decrease; also recorded: reduction in NeuN staining”. For the same substance, the “microglial responses (quantification)” value (microglia [3]; 3-6 mg/ml, compared to ACSF or albumin) was “robust and statistically significant increase”, the “persistence of microglial response to fibrin” value (microglia [3]; 5-10 μl of 3-6 mg/ml solution into cortex) was “at least 6 hours” and the “microglial activation 3 days after injection” value (microglia [4]) was “formed a deposit that is surrounded by microglial processes”. For the same substance, the “memory recall (crossings of the target platform, time spent in the target quadrant)” value (wild-type mice [5]) was “impaired memory recall”.
